The values below come from patent US20240239792A1, “MODULATORS OF BCL-2 OR BCL-2/BCL-XL AND USES THEREOF” (APPICINE THERAPEUTICS (HK) LIMITED, priority 2021, published 2024).

Bounds are passed on as bounds.

One experiment concerns the target T1, BCL-2 (Homo sapiens, UniProt P10415).
T1 construct: purchased Cisbio 63ADK000CB01PEG
The experiment is described as follows: HTRF BCL-2/BAK assay (Cisbio). It is filed as binding. Particulars: recombinant human Tag1-BCL-2 2 nM, Tag2-BAK 10 nM. As for the experimental part: Then the pre-mixed anti-Tag1-Eu^3+ and anti-tag2-XL665 were added to the plate and further incubated at room temperature for another 2 hours. The signals ([…]) were read on Envision 2104 instrument. The IC50 for each compound was derived from fitting the signal of 665/615 nM to the increasing compound concentration.
Using the above assays, the following compounds were tested.
On the technique in general: In TR-FRET formats the signal depends on donor and acceptor labels being close together.

The test system of the next experiment is DOHH2 cells. The experiment is described as follows: CellTiter-Glo cell proliferation assay, DOHH2 cells. It is filed as cell-based. Particulars: Homo sapiens, DOHH-2, 72 hours. How it is done: The CellTiter-Glo® Luminescent Cell Viability Assay (Promega, G7573) was used to study the cellular potency of disclosed compounds herein. The cells were harvested during the logarithmic growth period and counted with hemocytometer. The DOHH2 cells were seeded at 1.6*10^4 in 90 ul DMEM medium supplemented with 10% fetal bovine serum (FBS) (as RS4;11 cells were seeded at 4000 in 90 ul RPMI-1640 medium with 10% FBS) per well in 96-well plates and treated with 10 ul of a serial dilution of compounds disclosed herein (maximum concentration and dilution ratio determined by the results of pre-experiment may vary) for 72 hours in a 5% CO2 incubator at 37° C. Cell viability was assessed according to the manufacturer's recommendations. After the plates return to the room temperature, 100 ul of CellTiter-Glo® reagent was added to 100 ul of cell culture. The mixture was agitated on an orbital shaker for 2 minutes or placed it at room temperature for 10 minutes to allow cell lysis and stabilization of luminescent signals. Luminescent signals were recorded using Envision 2104 instrument. And GI50 values were then calculated.

As usually defined, the IC50 is the concentration needed to halve the response being measured. The GI50 is the concentration giving 50% growth inhibition. The low end stands for more potent growth inhibition, the high end for less potent growth inhibition.

T1 sequence (P10415 whole entry): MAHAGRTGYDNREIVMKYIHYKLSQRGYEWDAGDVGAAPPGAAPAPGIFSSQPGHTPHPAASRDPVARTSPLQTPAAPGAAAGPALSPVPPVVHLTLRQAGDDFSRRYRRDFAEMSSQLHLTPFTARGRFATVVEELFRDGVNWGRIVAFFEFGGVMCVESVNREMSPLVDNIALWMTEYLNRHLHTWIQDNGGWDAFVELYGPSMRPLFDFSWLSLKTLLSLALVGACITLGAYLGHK

Consider `O=C(NS(=O)(=O)c1ccc(NCC2CCOCC2)c([N+](=O)[O-])c1)c1ccc(N2CCN(C3CCCCc4ccccc43)CC2)cc1Oc1cnc2[nH]ccc2c1` (centres unmarked) [Compound 6, 2-((1H-pyrrolo[2,3-b]pyridin-5-yl)oxy)-N-((3-nitro-4-(((tetrahydro-2H-pyran-4-yl)methyl)amino)phenyl)sulfonyl)-4-(4-(6,7,8,9-tetrahydro-5H-benzo[7]annulen-5-yl)piperazin-1-yl)benzamide], for which, on BCL-2, the IC50 is less than 20 nM. The same molecule came in with a GI50 in the experiment on DOHH2 cells of 50 to 500 nM. With `O=C(NS(=O)(=O)c1cccc([N+](=O)[O-])c1)c1ccc(N2CCN(C3CCCc4ccccc43)CC2)cc1Oc1cnc2[nH]ccc2c1` (centres unmarked) [Compound 1, 2-((1H-pyrrolo[2,3-b]pyridin-5-yl)oxy)-N-((3-nitrophenyl)sulfonyl)-4-(4-(1,2,3,4-tetrahydronaphthalen-1-yl)piperazin-1-yl)benzamide], the IC50 on BCL-2 was 200 to 2000 nM. Regarding `O=C(NS(=O)(=O)c1cccc([N+](=O)[O-])c1)c1ccc(N2CCN(C3CCCc4cccc(-c5ccccc5)c43)CC2)cc1Oc1cnc2[nH]ccc2c1` (centres unmarked) [Compound 8, 2-((1H-pyrrolo[2,3-b]pyridin-5-yl)oxy)-N-((3-nitrophenyl)sulfonyl)-4-(4-(8-phenyl-1,2,3,4-tetrahydronaphthalen-1-yl)piperazin-1-yl)benzamide], the IC50 on BCL-2 lay in the range of 200 to 2000 nM.

As for `O=C(NS(=O)(=O)c1cccc([N+](=O)[O-])c1)c1ccc(N2CCN(C3CCOc4ccccc43)CC2)cc1Oc1cnc2[nH]ccc2c1` (centres unmarked) [Compound 9, 2-((1H-pyrrolo[2,3-b]pyridin-5-yl)oxy)-4-(4-(chroman-4-yl)piperazin-1-yl)-N-((3-nitrophenyl)sulfonyl)benzamide], on BCL-2, the IC50 lay in the range of 200 to 2000 nM. For `O=C(NS(=O)(=O)c1ccc(NCC2CC3(CCC(O)CC3)C2)c([N+](=O)[O-])c1)c1ccc(N2CCN([C@@H]3CCCCc4c(Cl)cccc43)CC2)cc1Oc1cnc2[nH]ccc2c1` (stereo partly drawn) [Compound 134, (R)-2-((1H-pyrrolo[2,3-b]pyridin-5-yl)oxy)-4-(4-(1-chloro-6,7,8,9-tetrahydro-5H-benzo[7]annulen-5-yl)piperazin-1-yl)-N-((4-(((7-hydroxyspiro[3.5]nonan-2-yl)methyl)amino)-3-nitrophenyl)sulfonyl)benzamide], on BCL-2, the IC50 was less than 20 nM. The molecule further showed a GI50 in the experiment on DOHH2 cells of less than 50 nM.

As to `CC(C)S(=O)(=O)N1CCC2(CC1)CC(CNc1ccc(S(=O)(=O)NC(=O)c3ccc(N4CCN([C@@H]5CCCCc6c(Cl)cccc65)CC4)cc3Oc3cnc4[nH]ccc4c3)cc1[N+](=O)[O-])C2` [Compound 128, (R)-2-((1H-pyrrolo[2,3-b]pyridin-5-yl)oxy)-4-(4-(1-chloro-6,7,8,9-tetrahydro-5H-benzo[7]annulen-5-yl)piperazin-1-yl)-N-((4-(((7-(isopropylsulfony1)-7-azaspiro[3.5]nonan-2-yl)methyl)amino)-3-nitrophenyl)sulfony1)benzamide], the IC50 at BCL-2 was less than 20 nM. In addition, the GI50 with DOHH2 cells was less than 50 nM. As to `O=C(NS(=O)(=O)c1ccc(NCC2CCOCC2)c([N+](=O)[O-])c1)c1ccc(N2CCN(C3CCCc4ccccc43)CC2)cc1Oc1cnc2[nH]ccc2c1` (centres unmarked) [Compound 2, 2-((1H-pyrrolo[2,3-b]pyridin-5-yl)oxy)-N-((3-nitro-4-(((tetrahydro-2H-pyran-4-yl)methyl)amino)phenyl)sulfonyl)-4-(4-(1,2,3,4-tetrahydronaphthalen-1-yl)piperazin-1-yl)benzamide], at BCL-2, the IC50 lay within 20 to 200 nM. In addition, in the experiment with DOHH2 cells, the GI50 is more than 5000 nM. Take `O=C(NS(=O)(=O)c1cccc([N+](=O)[O-])c1)c1ccc(N2CCN(C3CCCc4cccc(-c5cccs5)c43)CC2)cc1Oc1cnc2[nH]ccc2c1` (centres unmarked) [Compound 15, 2-((1H-pyrrolo[2,3-b]pyridin-5-yl)oxy)-N-((3-nitrophenyl)sulfonyl)-4-(4-(8-(thiophen-2-yl)-1,2,3,4-tetrahydronaphthalen-1-yl)piperazin-1-yl)benzamide]: the IC50 at BCL-2 lay within 200 to 2000 nM.

For `CS(=O)(=O)N1CCc2ccccc2C(N2CCN(c3ccc(C(=O)NS(=O)(=O)c4ccc(NCC5CCOCC5)c([N+](=O)[O-])c4)c(Oc4cnc5[nH]ccc5c4)c3)CC2)C1` (centres unmarked) [Compound 60, 2-((1H-pyrrolo[2,3-b]pyridin-5-yl)oxy)-4-(4-(3-(methylsulfonyl)-2,3,4,5-tetrahydro-1H-benzo[d]azepin-1-yl)piperazin-1-yl)-N-((3-nitro-4-(((tetrahydro-2H-pyran-4-yl)methyl)amino)phenyl)sulfonyl)benzamide], the IC50 at BCL-2 is less than 20 nM. The GI50 with DOHH2 cells is more than 5000 nM. Take `O=C(NS(=O)(=O)c1ccc(NCC2CC3(CCN(S(=O)(=O)C4CC4)CC3)C2)c([N+](=O)[O-])c1)c1ccc(N2CCN([C@@H]3CCCCc4c(Cl)cccc43)CC2)cc1Oc1cnc2[nH]ccc2c1` [Compound 127, (R)-2-((1H-pyrrolo[2,3-b]pyridin-5-yl)oxy)-4-(4-(1-chloro-6,7,8,9-tetrahydro-5H-benzo[7]annulen-5-y1)piperazin-1-yl)-N-((4-(((7-(cyclopropylsulfonyl)-7-azaspiro[3.5]nonan-2-yl)methyl)amino)-3-nitrophenyl)sulfonyl)benzamide]: on BCL-2, the IC50 was less than 20 nM. Moreover, the GI50 in the experiment with DOHH2 cells was less than 50 nM. On to `O=C(NS(=O)(=O)c1cccc([N+](=O)[O-])c1)c1ccc(N2CCN(C3CCCc4cccc(-c5ccsc5)c43)CC2)cc1Oc1cnc2[nH]ccc2c1` (centres unmarked) [Compound 11, 2-((1H-pyrrolo[2,3-b]pyridin-5-yl)oxy)-N-((3-nitrophenyl)sulfonyl)-4-(4-(8-(thiophen-3-yl)-1,2,3,4-tetrahydronaphthalen-1-yl)piperazin-1-yl)benzamide], for which, on BCL-2, the IC50 fell in the range of 200 to 2000 nM. As for `O=C(NS(=O)(=O)c1ccc(NCC2CCOCC2)c([N+](=O)[O-])c1)c1ccc(N2CCC3(CC2)CN(C2CCCCc4ccccc42)C3)cc1Oc1cnc2[nH]ccc2c1` (centres unmarked) [Compound 93, 2-((1H-pyrrolo[2,3-b]pyridin-5-yl)oxy)-N-((3-nitro-4-(((tetrahydro-2H-pyran-4-yl)methyl)amino)phenyl)sulfonyl)-4-(2-(6,7,8,9-tetrahydro-5H-benzo[7]annulen-5-yl)-2,7-diazaspiro[3.5]nonan-7-yl)benzamide], at BCL-2, the IC50 was in the range of 20 to 200 nM. Moreover, the GI50 in the experiment with DOHH2 cells fell in the range of 500 to 5000 nM.

For `Nc1cccc2c1CCCCC2N1CCN(c2ccc(C(=O)NS(=O)(=O)c3ccc(NCC4CCOCC4)c([N+](=O)[O-])c3)c(Oc3cnc4[nH]ccc4c3)c2)CC1` (centres unmarked) [Compound 58, 2-((1H-pyrrolo[2,3-b]pyridin-5-yl)oxy)-4-(4-(1-amino-6,7,8,9-tetrahydro-5H-benzo[7]annulen-5-yl)piperazin-1-yl)-N-((3-nitro-4-(((tetrahydro-2H-pyran-4-yl)methyl)amino)phenyl)sulfonyl)benzamide], on BCL-2, the IC50 was less than 20 nM. Also, in the experiment with DOHH2 cells, the GI50 fell in the range of 500 to 5000 nM.

Turning to `CC(C)(C)OC(=O)N1CC2CC1CC2CNc1ccc(S(=O)(=O)NC(=O)c2ccc(N3CCN([C@@H]4CCCCc5c(Cl)cccc54)CC3)cc2Oc2cnc3[nH]ccc3c2)cc1[N+](=O)[O-]` (stereo partly drawn) [Compound 103, tert-butyl 5-(((4-(N-(2-((1H-pyrrolo[2,3-b]pyridin-5-yl)oxy)-4-(4-((R)-1-chloro-6,7,8,9-tetrahydro-5H-benzo[7]annulen-5-yl)piperazin-1-yl)benzoyl)sulfamoyl)-2-nitrophenyl)amino)methyl)-2-azabicyclo[2.2.1]heptane-2-carboxylate], at BCL-2, the IC50 was less than 20 nM. In the experiment with DOHH2 cells, this molecule had a GI50 of 50 to 500 nM. As to `O=C(NS(=O)(=O)c1cccc([N+](=O)[O-])c1)c1ccc(N2CCN(C3CCCc4cccc(-c5cccc(Cl)c5)c43)CC2)cc1Oc1cnc2[nH]ccc2c1` (centres unmarked) [Compound 14, 2-((1H-pyrrolo[2,3-b]pyridin-5-yl)oxy)-4-(4-(8-(3-chlorophenyl)-1,2,3,4-tetrahydronaphthalen-1-yl)piperazin-1-yl)-N-((3-nitrophenyl)sulfonyl)benzamide], the IC50 at BCL-2 lay within 200 to 2000 nM.

Turning to `O=C(NS(=O)(=O)c1cccc([N+](=O)[O-])c1)c1ccc(N2CCN(C3CCc4ccccc43)CC2)cc1Oc1cnc2[nH]ccc2c1` (centres unmarked) [Compound 3, 2-((1H-pyrrolo[2,3-b]pyridin-5-yl)oxy)-4-(4-(2,3-dihydro-1H-inden-1-yl)piperazin-1-yl)-N-((3-nitrophenyl)sulfonyl)benzamide], at BCL-2, the IC50 lay in the range of 200 to 2000 nM.

For `CC1(C)CCC2(CC1)CC(CNc1ccc(S(=O)(=O)NC(=O)c3ccc(N4CCN([C@@H]5CCCCc6c(Cl)cccc65)CC4)cc3Oc3cnc4[nH]ccc4c3)cc1[N+](=O)[O-])C2` [Compound 136, (R)-2-((1H-pyrrolo[2,3-b]pyridin-5-yl)oxy)-4-(4-(1-chloro-6,7,8,9-tetrahydro-5H-benzo[7]annulen-5-yl)piperazin-1-y1)-N-((4-(((7,7-dimethylspiro[3.5]nonan-2-yl)methyl)amino)-3-nitrophenyl)sulfonyl)benzamide], the GI50 in the experiment on DOHH2 cells was more than 5000 nM.
